These results are taken from patent US11607446B2, “Personalized immunotherapy against several neuronal and brain tumors” (Immatics Biotechnologies GmbH, priority 2013, dated 2023).

Where no end group is shown, it is not given here.

In this assay the test system is CD8+ T cells. Nature of the assay: In vitro immunogenicity of HLA-A*02 class I peptides: in vitro T-cell priming with aAPCs loaded with peptide/MHC complexes and anti-CD28 antibody, pMHC multimer readout. It counts as cell-based, human. The settings on record: HLA-A*02 peptides; for Donors / Donors (percentage in brackets): healthy donors; for Donors: specific multimer+ CD8+ T-cell line after in vitro stimulation; for Wells: in vitro stimulated wells of healthy donors' CD8+ T cells, specific multimer+ readout.

With “SLAERLFFQV (listed as Homo sapiens) [NAT8L-001]”, the Donors result was “++++ (>70% = ++++)” and the Wells entry is “+ (<20% = +)”.
For “SLDTLMTYV (listed as Homo sapiens) [NLGN4Y-001]”, in that order: “++++ (>70% = ++++)” and “+ (<20% = +)”.
Regarding “KLTDIQIEL (listed as Homo sapiens) [JAK-001]”, the Donors result is listed as “++ (20%-49 % = ++)” and the Wells entry is recorded as “+ (<20% = +)”.
With “LTAPPEALLMV (listed as Homo sapiens) [NOC4-001]”, the Donors result was “+++ (50%-70% = +++)” and the Wells result is reported as “+ (<20% = +)”.
For the substance “GLWHHQTEV (listed as Homo sapiens) [NRC AM-001]”, the “Donors (percentage in brackets)” value turned out to be 100%, the Donors result is listed as “++++ (>70% = ++++)” and the Wells result is given as “+ (<20% = +)”.
“ILFPDIIARA (listed as Homo sapiens) [MAGEF1-001]”: the Donors entry is “++++ (>70% = ++++)” and the Wells result is recorded as “++ (20%-49 % = ++)”.
“AIIDGVESV (listed as Homo sapiens) [PTP-003]”: the Donors result was “++++ (>70% = ++++)” and the Wells result is “+ (<20% = +)”.
For “LLLGSPAAA (listed as Homo sapiens) [SEZ6L-001]”, the Donors result was “++++ (>70% = ++++)” and the Wells result is “+ (<20% = +)”.
As for “GMMTAILGV (listed as Homo sapiens) [SLC35E1-002]”, the Donors entry was “++ (20%-49 % = ++)” and the Wells entry is on record as “+ (<20% = +)”.
Regarding “RVAS*PTSGV (RVASPTSGV; not fully specified (residue 4); printed as RVAS*PTSGV; listed as Homo sapiens) [IRS-001]”, the Donors result is “+++ (50%-70% = +++)” and the Wells result is “+ (<20% = +)”.
For the substance “LLQDRLVSV (listed as Homo sapiens) [PLEKHA4-001]”, the Donors entry is given as “+++ (50%-70% = +++)” and the Wells entry is reported as “+ (<20% = +)”.
For “MLFGHPLLVSV (listed as Homo sapiens) [USP11-001]”, the Donors result was “++++ (>70% = ++++)” and the Wells entry was “++ (20%-49 % = ++)”.
With “GLSEFTEYL (listed as Homo sapiens) [MAP1B-002]”, the Donors entry is recorded as “++ (20%-49 % = ++)” and the Wells result is given as “+ (<20% = +)”.
Regarding “KLADQYPHL (listed as Homo sapiens) [SOX-001]”, the Donors entry is listed as “++++ (>70% = ++++)” and the Wells result is recorded as “+ (<20% = +)”.
In the case of “LLWGNAIFL (listed as Homo sapiens) [KIF1A-001]”, the Donors entry is listed as “+++ (50%-70% = +++)” and the Wells result is “++ (20%-49 % = ++)”.
For “NILEQIVSV (listed as Homo sapiens) [GRI-001]” the same measures were “++ (20%-49 % = ++)” and “+ (<20% = +)”.
For “FLDSKFYLL (listed as Homo sapiens) [MAP1B-001]”, the Donors entry is “+++ (50%-70% = +++)” and the Wells result is “+ (<20% = +)”.
For MIWEHNVEV [PTP-013], the Donors result is on record as “++++ (>70% = ++++)” and the Wells entry is listed as “+ (<20% = +)”.
On to “TLWYRAPEV (listed as Homo sapiens) [CDK4-001]”, for which the Donors entry is recorded as “++++ (>70% = ++++)” and the Wells result is recorded as “++ (20%-49 % = ++)”.
As to “TMLARLASA (listed as Homo sapiens) [CSP-001]”, the Donors entry is reported as “+++ (50%-70% = +++)” and the Wells entry is “+ (<20% = +)”.
Turning to “AMTQLLAGV (listed as Homo sapiens) [TNC-001]”, the Donors entry was “++ (20%-49 % = ++)” and the Wells result is listed as “+ (<20% = +)”.
For “ALTTLMHQL (listed as Homo sapiens) [PTP-001]” the same measures were “++ (20%-49 % = ++)” and “+ (<20% = +)”.
With “SLGLFLAQV (listed as Homo sapiens) [SCARA3-001]”, the Donors entry was “++ (20%-49 % = ++)” and the Wells result is given as “+ (<20% = +)”.
For “YLPTFFLTV (listed as Homo sapiens) [ELOVL2-001]”, the Donors entry is “++++ (>70% = ++++)” and the Wells entry is given as “+ (<20% = +)”.
Take “TLTNIIHNL (listed as Homo sapiens) [ORMDL1-002]”: the Donors entry is listed as “+++ (50%-70% = +++)” and the Wells entry is “+ (<20% = +)”.
Take “ALFNKGGSVFL (listed as Homo sapiens) [GPR98-001]”: the Donors entry is given as “++ (20%-49 % = ++)” and the Wells entry is “+ (<20% = +)”.
As for “FLWSDGVPL (listed as Homo sapiens) [BCA-003]”, the Donors entry was “++ (20%-49 % = ++)” and the Wells entry is reported as “+ (<20% = +)”.
Consider “FLLPDTDGLTAL (listed as Homo sapiens) [PTP-012]”, for which the Donors entry is listed as “++ (20%-49 % = ++)” and the Wells entry is reported as “+ (<20% = +)”.
For “SLADFMQEV (listed as Homo sapiens) [CNOT1-002]” the same measures were “++ (20%-49 % = ++)” and “+ (<20% = +)”.
As to “KLCEGFNEV (listed as Homo sapiens) [CHCHD2-005]”, the Donors entry is “+++ (50%-70% = +++)” and the Wells result was “+ (<20% = +)”.
For “VLIQDVPTL (listed as Homo sapiens) [GRI-002]”, in that order: “++ (20%-49 % = ++)” and “+ (<20% = +)”.
For “KIQEILTQV (listed as Homo sapiens) [IGF2BP3-001]”, the Donors entry is “+++ (50%-70% = +++)” and the Wells entry was “+ (<20% = +)”.
For “ILFEINPKL (listed as Homo sapiens) [ABCA13-001]” the same measures were “++ (20%-49 % = ++)” and “+ (<20% = +)”.
For “NLLAEIHGV (listed as Homo sapiens) [DPYSL4-001]” the same measures were “++ (20%-49 % = ++)” and “+ (<20% = +)”.
For “FLYNEALYSL (listed as Homo sapiens) [DPP3-001]” the same measures were “+++ (50%-70% = +++)” and “+ (<20% = +)”.
With “TLLAAEFLKQV (listed as Homo sapiens) [CCT-001]”, the Donors entry was “+++ (50%-70% = +++)” and the Wells result is recorded as “+ (<20% = +)”.
As for “NLDTLMTYV (listed as Homo sapiens) [NLGN4X-001]”, the “Donors (percentage in brackets)” value worked out at 100%, the Donors entry is on record as “++++ (>70% = ++++)” and the Wells entry was “++ (20%-49 % = ++)”.
Regarding “KVFAGIPTV (listed as Homo sapiens) [PTP-005]”, the Donors entry is recorded as “++++ (>70% = ++++)” and the Wells result is on record as “++ (20%-49 % = ++)”.
“SLYKGLLSV (listed as Homo sapiens) [RAD54B-001]”: the “Donors (percentage in brackets)” value is reported as 100%, the Donors result is listed as “++++ (>70% = ++++)” and the Wells entry is on record as “++ (20%-49 % = ++)”.
With “RLGIKPESV (listed as Homo sapiens) [CSRP2-001]”, the “Donors (percentage in brackets)” value was 100%, the Donors entry is “++++ (>70% = ++++)” and the Wells entry is “++ (20%-49 % = ++)”.
On to “LLYTGDLEAL (listed as Homo sapiens) [NPAS3-001]”, for which the Donors result was “++ (20%-49 % = ++)” and the Wells entry is “+ (<20% = +)”.
Take “SLWGGDVVL (listed as Homo sapiens) [VPS13B-001]”: the “Donors (percentage in brackets)” value is on record as 100%, the Donors entry was “++++ (>70% = ++++)” and the Wells result is “++ (20%-49 % = ++)”.
Consider “ALGDIREV (listed as Homo sapiens) [ANKRD40-001]”, for which the Donors entry is “+++ (50%-70% = +++)” and the Wells result is “+ (<20% = +)”.
“ALWAWPSEL (listed as Homo sapiens) [BCA-002]”: the “Donors (percentage in brackets)” value worked out at 100%, the Donors entry is on record as “++++ (>70% = ++++)” and the Wells result is reported as “++++ (>70% = ++++)”.
“LLYDAVHIV (listed as Homo sapiens) [GRIK3-001]”: the Donors entry was “++++ (>70% = ++++)” and the Wells entry is given as “+ (<20% = +)”.
For the substance RVADYIVKV [SLC10A4-002], the Donors result is “+++ (50%-70% = +++)” and the Wells entry was “+ (<20% = +)”.
As to “ILIDWLVQV (listed as Homo sapiens) [CCNB1-002]”, the Donors result is “+++ (50%-70% = +++)” and the Wells result is “+ (<20% = +)”.
With “YQDPHSTAV (listed as Homo sapiens) [EGFR-008]”, the Donors entry is recorded as “++ (20%-49 % = ++)” and the Wells entry is “+ (<20% = +)”.
Turning to “KLVEFDFLGA (listed as Homo sapiens) [TACC3-001]”, the Donors entry is “++ (20%-49 % = ++)” and the Wells result is recorded as “+ (<20% = +)”.
Regarding “KLGDFGLATVV (listed as Homo sapiens) [DCA-001]”, the Donors result is reported as “++ (20%-49 % = ++)” and the Wells result is “+ (<20% = +)”.
As for “AVVEFLTSV (listed as Homo sapiens) [DROSHA-001]”, the Donors entry is recorded as “++ (20%-49 % = ++)” and the Wells entry is listed as “+ (<20% = +)”.
Take “FLYKVILSL (listed as Homo sapiens) [PTP-002]”: the Donors entry is “+++ (50%-70% = +++)” and the Wells result is “+ (<20% = +)”.
“GLPSGAPPGV (listed as Homo sapiens) [MTSS1L-001]”: the “Donors (percentage in brackets)” value worked out at 100%, the Donors result is listed as “++++ (>70% = ++++)” and the Wells entry is “+++ (50%-70% = +++)”.
Turning to “LTFGDVVAV (listed as Homo sapiens) [FABP7-001]”, the Donors entry is recorded as “++++ (>70% = ++++)” and the Wells result is recorded as “+ (<20% = +)”.
“GLLDQIQAL (listed as Homo sapiens) [NLGN4X-002]”: the Donors result is “++ (20%-49 % = ++)” and the Wells result is on record as “+ (<20% = +)”.
Take “ALADIAVGV (listed as Homo sapiens) [ADORA3-001]”: the Donors entry is “++ (20%-49 % = ++)” and the Wells entry was “+ (<20% = +)”.
